# Earlier results, collected in US20150374773A1, “Homeopathic Composition Comprising Hypericum Perforatum Extract And Essential Oils For The Treatment Of Neuropathic Pain” (NEURAGEN CORP., priority 2008, published 2015).
# Tested on: neuropathic pain
# Conditions: literature statement
row,Compound,efficacy in neuropathic pain
1,NCC1(CC(=O)O)CCCCC1 [gabapentin],"effective in painful diabetic neuropathy, mixed neuropathies, and postherpetic neuralgia"
2,Nc1nnc(-c2cccc(Cl)c2Cl)c(N)n1 [Lamotrigine],no better than placebo
